Assay results published in US6878701B2, “Potassium channel blocking agents” (Neurosearch A/S, priority 1999, dated 2005).

Biological target: T1, small-conductance Ca2+-activated K+ channels (SK channels, isoform 2) (Rattus norvegicus, UniProt P70604)
T1 construct: expressed in transfected cells; host or cells: HEK293
Assay: Whole-cell patch-clamp recording of SK channel current in stably transfected HEK293 cells
Assay type: cell-based
Settings: rat SK2 stably expressed in HEK293 cells, room temperature, IC50 = Koff/Kon from kinetics of the block, read-out: biological activity determined as IC50
Experimental: In this experiment. small-conductance Ca^2+-activated K^+ channels (SK channels, isoform 2) cloned from a rat cDNA library were stably expressed in HEK293 cells using standard procedures. The ionic current through the channels was recorded in the whole-cell mode of the patch-clamp technique.
Cells plated on coverstips are placed in a 15 μl perfusion chamber (flowrate ˜1 ml/min), mounted on a IMT-2 microscope equipped with Nomarski or Hoffmann optics. The microscopes are placed on vibration-free tables in grounded Faraday cages.
All experiments are performed at room temperature (20-22° C.). […] Data are stored directly on the harddisk and analysed by the IGOR software according to the manufacturer's instructions.
The whole-cell configuration of the patch clamp technique is applied. […] Cell capacitance is electronically compensated and the resistance between the pipette and the cell interior (the series resistance, Rs) is measured and compensated for. […]
In the experiments where the effect of channel activators is quantified (test 475), the intracellular (pipette) solution has the following composition (concentration in mM):
The calculated free concentration of Ca^2+ in this solution is 100 nM, and that of Mg^2+ is 1 mM. In these experiments, the concentration of CaCl2 is 7.6 mM and that of MgCl2 is 1.2 mM to give calculated free concentrations of 300 nM and 1 mM, respectively. […]

Compound `CN1CCN(C)c2nc(c3ccccc3n2)NCC2CCCC(CNc3nc1nc1ccccc31)C2` [Compound 2, 20,23-dimethyl-2,10,18,20,23,25,32,33-octaazahexacyclo [22.7.1.1^4.8.1^11,19.0^12,17.0^26,31] tetratriaconta-1(32).11,13,15,17,19(33),24,26,28,30-decaene] has an IC50 of less than 1000 nM.
